Broadly, the IC50 is the concentration that gives 50% inhibition. For orientation: Kp means tissue or fluid exposure divided by exposure in the circulation. What is called ED50 is the dose that gives a 50% effect, or the effect in half of the subjects. Usually inhibition in vivo stands for the percentage by which the read-out fell short of the control. By bioavailability is commonly meant dose-corrected exposure relative to a reference, in per cent. A word on the half-life: it is the time in which the quantity being followed falls by half. For orientation: CL/F means the apparent clearance, not corrected for the fraction that reaches the circulation.

Results on one compound are retold here after ChEMBL document CHEMBL4219215, “Discovery of {4-[4,9-bis(ethyloxy)-1-oxo-1,3-dihydro-2H-benzo[f]isoindol-2-yl]-2-fluorophenyl}acetic acid (GSK726701A), a novel EP4 receptor partial agonist for the treatment of pain” (Bioorg Med Chem Lett, 2018).

In series [1] the target is T1, Prostaglandin E2 receptor EP3 subtype (Homo sapiens, UniProt P43115).
T1 sequence (P43115 whole entry): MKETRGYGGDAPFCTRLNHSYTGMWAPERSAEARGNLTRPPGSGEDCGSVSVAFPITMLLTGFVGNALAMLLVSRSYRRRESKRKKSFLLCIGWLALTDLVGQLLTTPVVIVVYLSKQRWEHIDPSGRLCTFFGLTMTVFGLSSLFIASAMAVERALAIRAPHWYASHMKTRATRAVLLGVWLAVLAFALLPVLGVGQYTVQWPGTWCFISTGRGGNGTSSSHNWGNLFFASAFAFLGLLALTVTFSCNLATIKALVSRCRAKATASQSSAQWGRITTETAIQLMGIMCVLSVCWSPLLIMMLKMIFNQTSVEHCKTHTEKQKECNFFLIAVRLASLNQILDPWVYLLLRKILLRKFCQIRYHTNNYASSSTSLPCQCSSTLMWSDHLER
Put plainly: Activity at EP3 receptor (unknown origin).

The nature of series [2]: Ratio of drug level in brain to blood in rat at 1 mg/kg, po. It counts as ADME, organism-based.
The subject of series [3] is Rattus norvegicus. Put plainly: Analgesic activity in rat model of Freund's complete adjuvant-induced acute inflammatory pain assessed as reversal of FCA-induced hypersensitivity at 3 mg/kg, po relative to untreated control. It counts as functional.
Series [4] is filed under the species Homo sapiens. Put plainly: Selectivity index, ratio of antagonist activity at IP receptor (unknown origin) to pEC50 for partial agonist activity at human EP4 receptor expressed in HEK293-AEQ17 cells. It counts as cell-based.
Series [5] relates to Rattus norvegicus. Put plainly: Analgesic activity in rat model of chronic joint pain dosed twice daily for 5 days. It counts as functional. The conditions noted are these: 120 h.
Series [6] has as its system Rattus norvegicus. Put plainly: Analgesic activity in rat model of chronic constriction injury-induced neuropathic pain assessed as reversal of mechanical allodynia at 3 mg/kg dosed twice daily for 8 days relative to untreated control. The format is functional. The conditions noted are these: 192 h.
Series [7] in a line: Oral bioavailability in cynomolgus monkey. It counts as ADME, organism-based, Macaca fascicularis. The conditions noted are these: in vivo.
Series [8] deals with Rattus norvegicus. Nature of the series: Analgesic activity in rat model of chronic constriction injury-induced neuropathic pain assessed as reversal of mechanical allodynia at 3 mg/kg dosed twice daily for 8 days. It counts as functional, organism-based. The conditions noted are these: TDE = time-dependent effect.
The subject of series [9] is Rattus norvegicus. Put plainly: Analgesic activity in orally dosed rat model of Freund's complete adjuvant-induced acute inflammatory pain assessed as reversal of FCA-induced hypersensitivity. It counts as functional. The conditions noted are these: po.
A short description of series [10]: Half life in orally dosed dog. The format is ADME, organism-based, Canis lupus familiaris. The conditions noted are these: in vivo, po.
A short description of series [11]: Protein binding in human plasma. It counts as ADME, cell-free. The conditions noted are these: read-out: PPB.
Series [12] concerns the target Prostaglandin E2 receptor EP2 subtype (Homo sapiens) (UniProt P43116). Put plainly: Agonist activity at EP2 receptor (unknown origin) assessed as induction of receptor activation at 1 uM. It counts as functional.
For another series, the target named is Cytochrome P450 2C9 (Homo sapiens, UniProt P11712). Put plainly: Inhibition of human recombinant CYP2C9. The conditions noted are these: human, recombinant enzyme. It counts as ADME.
Cytochrome P450 2C9, sequence (P11712 whole entry): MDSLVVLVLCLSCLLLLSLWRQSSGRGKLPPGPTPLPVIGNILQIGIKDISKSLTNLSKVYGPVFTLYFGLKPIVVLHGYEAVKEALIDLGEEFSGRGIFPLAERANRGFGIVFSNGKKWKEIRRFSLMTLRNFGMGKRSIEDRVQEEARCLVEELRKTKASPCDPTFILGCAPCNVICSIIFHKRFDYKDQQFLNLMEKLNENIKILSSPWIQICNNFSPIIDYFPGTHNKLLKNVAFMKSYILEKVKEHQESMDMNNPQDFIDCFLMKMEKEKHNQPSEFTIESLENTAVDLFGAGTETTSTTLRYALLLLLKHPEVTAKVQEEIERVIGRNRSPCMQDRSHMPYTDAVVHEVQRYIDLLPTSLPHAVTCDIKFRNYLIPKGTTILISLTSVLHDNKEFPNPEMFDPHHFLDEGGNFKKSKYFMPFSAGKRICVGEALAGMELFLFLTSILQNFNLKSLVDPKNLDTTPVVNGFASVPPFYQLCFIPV
Series [13] deals with T2, Prostaglandin D2 receptor (Homo sapiens, UniProt Q13258).
T2 sequence (Q13258 whole entry): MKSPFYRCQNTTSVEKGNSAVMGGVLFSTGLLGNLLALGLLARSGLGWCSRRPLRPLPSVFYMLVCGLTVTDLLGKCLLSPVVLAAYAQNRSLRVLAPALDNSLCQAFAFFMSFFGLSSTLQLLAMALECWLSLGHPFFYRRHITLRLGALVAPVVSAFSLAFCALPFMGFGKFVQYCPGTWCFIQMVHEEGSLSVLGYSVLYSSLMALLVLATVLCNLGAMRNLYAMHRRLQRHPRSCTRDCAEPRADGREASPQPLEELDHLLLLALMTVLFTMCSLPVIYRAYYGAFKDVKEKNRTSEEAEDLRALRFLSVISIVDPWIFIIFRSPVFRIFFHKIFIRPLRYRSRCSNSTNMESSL
Nature of the series: Activity at DP1 receptor (unknown origin).

Series [14] can be described thus: Blood clearance in rat at 1 mg/kg, po. It counts as ADME, organism-based.
The species named for series [15] is Homo sapiens. Put plainly: Selectivity index, ratio of agonist activity at IP receptor (unknown origin) to pEC50 for partial agonist activity at human EP4 receptor expressed in HEK293-AEQ17 cells. It counts as cell-based.

Prostaglandin E2 receptor EP2 subtype (Homo sapiens), sequence (P43116 whole entry): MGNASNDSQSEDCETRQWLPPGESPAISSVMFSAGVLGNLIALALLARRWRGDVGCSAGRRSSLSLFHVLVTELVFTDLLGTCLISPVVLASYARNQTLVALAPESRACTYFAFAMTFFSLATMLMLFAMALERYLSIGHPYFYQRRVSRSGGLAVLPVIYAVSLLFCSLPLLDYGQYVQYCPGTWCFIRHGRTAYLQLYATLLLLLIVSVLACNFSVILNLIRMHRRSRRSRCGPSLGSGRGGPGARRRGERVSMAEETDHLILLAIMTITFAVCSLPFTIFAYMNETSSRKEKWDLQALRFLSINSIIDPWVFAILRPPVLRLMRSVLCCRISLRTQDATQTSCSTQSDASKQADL

As for `CCOc1c2c(c(OCC)c3ccccc13)C(=O)N(c1ccc(CC(=O)O)c(F)c1)C2`, the figures for the 50% inhibitory concentration (IC50) in series [1] and in series [13] were over 10 µM and over 31.6 µM, respectively. Besides, the Kp in [2] was under 0.05. Further, the Activity is 80% in the series with Rattus norvegicus [3], “Tde” with Rattus norvegicus [8] and 14% in series [12]. Besides, the Selectivity ratio in the series listed under Homo sapiens [4] and in the series filed under Homo sapiens [15] was over 100 throughout. In addition, the 50% effective dose (ED50) in the series with Rattus norvegicus [5] was 0.23 mg/kg; with Rattus norvegicus [9], 0.2 to 0.22 mg/kg. Further, the inhibition in vivo at 3 mg/kg with Rattus norvegicus [6] amounted to 100%. In series [7], this compound gave a bioavailability of 50%. The same compound showed a half-life in series [10] of 8 h. Also, the fraction unbound in series [11] was found to be 0.001. Moreover, on Cytochrome P450 2C9, the INH was over 100 µM. In addition, in [14], the apparent clearance (CL/F) came to 1 mL/min/kg.
